Source: US10093713B2, “GIP-GLP-1 dual agonist compounds and methods” (priority 2013, dated 2018)
Where two headings read alike, the source gives them in different places. *1 amine or outer side, *2 acyl side, *3 side chain or, on linkers, in order; H or OH if unused. Where a SMILES comes first, the peptide text is derived from it. Side-chain parts run from the residue outwards. [ ]: non-standard residue; d: D form. The star is where a group is joined. C18 diacid = O=C(O)CCCCCCCCCCCCCCCCC(=O)*; γGlu = O=C(O)[C@H](CCC(=O)[*:2])N[*:1]; AEEA = NCCOCCOCC(=O)O; Aib = CC(C)(N)C(=O)O

Legend:
[1] = molecular target: T1, human GLP-1 R (Homo sapiens, UniProt P43220); experiment: Human GLP-1 receptor (GLP-1 R) activity assay, cAMP induction (AlphaScreen) in HEK293 cells; type: cell-based
T1 construct: expressed in transfected cells
Description: (§1) Human GIP Receptor (GIP R) and GLP-1 Receptor (GLP-1 R) Activity Assay
(§2) In vitro effects of peptide conjugates of the invention were assessed by measuring the induction of cAMP following stimulation of the respective receptor by GIP, GLP1 or analogues of these, as outlined in the invention, using the AlphaSceen® cAMP kit from Perkin-Elmer according to instructions. Briefly, HEK293 cells expressing the human GIP R or GLP-1 R (stable cell lines generated through transfection of the cDNA for human GIP R or GLP-1 and selection of stable clones) were seeded at 30,000 cells/well in 96-well microtiter plates coated with 0.01% poly-L-lysine, and grown for 1 day in culture in 200 μl growth medium (DMEM, 10% FCS, Penicillin (100 IU/ml), Streptomycin (100 μg/ml)). On the day of analysis, growth medium was removed and the cells were washed once with […] Tyrode's buffer (Tyrode's Salts (9.6 g/l), 10 mM HEPES, pH 7.4). […] The Assay buffer was removed and cells are lysed in 80 μl Lysis buffer (0.1% w/v BSA, 5 mM HEPES, 0.3% v/v Tween-20) per well. From each well 10 μl lysed cells was transferred to a 384-well plate and mixed with 15 μl bead-mix (1 Unit/15 μl anti-cAMP Acceptor Beads, 1 Unit/15 μl Donor Beads, and 1 Unit/15 μl Biotinylated cAMP in Assay Buffer). The plates were mixed and incubated in the dark for an hour at room temperature before measuring using an Envision™ plate reader (Perkin-Elmer).
(§3) The resulting cAMP curves were plotted as absolute cAMP concentrations (nM) over log (test compound concentration) and analyzed using the curve fitting program XLfit.
(§4) Parameters calculated to describe both the potency as well as the agonistic activity of each test compound on the receptors were:
(§5) EC50, a concentration resulting in a half-maximal elevation of cAMP levels, reflecting the potency of the test compound.

[2] = molecular target: T2, human GIP R (Homo sapiens, UniProt P48546); experiment: Human GIP receptor (GIP R) activity assay, cAMP induction (AlphaScreen) in HEK293 cells; type: cell-based; settings: read-out: hGIP-R cAMP EC50 average value
T2 construct: expressed in transfected cells
T2 sequence (P48546 22-466): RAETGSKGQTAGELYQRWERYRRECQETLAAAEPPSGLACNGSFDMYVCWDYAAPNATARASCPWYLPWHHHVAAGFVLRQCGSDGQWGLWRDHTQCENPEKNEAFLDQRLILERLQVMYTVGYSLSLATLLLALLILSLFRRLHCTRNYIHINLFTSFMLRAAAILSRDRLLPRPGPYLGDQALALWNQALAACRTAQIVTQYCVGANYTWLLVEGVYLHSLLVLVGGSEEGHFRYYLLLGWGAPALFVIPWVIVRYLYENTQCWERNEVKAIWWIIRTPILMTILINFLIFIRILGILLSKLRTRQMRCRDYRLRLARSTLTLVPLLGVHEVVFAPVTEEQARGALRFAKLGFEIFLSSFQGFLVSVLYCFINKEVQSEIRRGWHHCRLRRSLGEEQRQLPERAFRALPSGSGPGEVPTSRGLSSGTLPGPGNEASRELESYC
Description: as §1, §2, §3, §4, §5

[3] = Table 2, HEK293 cells expressing human GLP-1 R, read-out: hGLP1-R cAMP EC50 average value
[4] = Table 2a, secondary assay study, read-out: hGLP1-R cAMP EC50 average value
[5] = Table 2, HEK293 cells expressing human GIP R
[6] = Table 2a, secondary assay study
[7] = Table 3, most comprehensive data
[8] = Table 3, most comprehensive data, read-out: hGLP-1-R cAMP EC50 average value

T1 sequence (P43220 24-463): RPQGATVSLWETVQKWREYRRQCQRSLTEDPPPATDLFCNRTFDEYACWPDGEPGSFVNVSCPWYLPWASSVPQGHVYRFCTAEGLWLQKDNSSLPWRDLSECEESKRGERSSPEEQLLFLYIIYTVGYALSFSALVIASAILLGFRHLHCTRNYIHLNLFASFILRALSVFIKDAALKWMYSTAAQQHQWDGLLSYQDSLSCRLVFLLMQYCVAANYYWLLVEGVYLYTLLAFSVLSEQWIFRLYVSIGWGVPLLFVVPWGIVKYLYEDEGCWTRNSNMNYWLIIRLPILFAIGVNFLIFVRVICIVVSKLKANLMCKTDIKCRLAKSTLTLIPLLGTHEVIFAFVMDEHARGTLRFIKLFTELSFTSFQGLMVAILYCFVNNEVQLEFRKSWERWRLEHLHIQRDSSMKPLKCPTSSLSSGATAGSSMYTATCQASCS

SMILES | EC50 [1, 3] [nM] | EC50 [1, 4] [nM] | EC50 [2, 5] [nM] | EC50 [2, 6] [nM] | EC50 [2, 7] [nM] | EC50 [1, 8] [nM]
CC[C@H](C)[C@H](NC(=O)[C@H](CO)NC(=O)[C@H](Cc1ccc(O)cc1)NC(=O)[C@H](CC(=O)O)NC(=O)[C@H](CO)NC(=O)[C@@H](NC(=O)[C@H](Cc1ccccc1)NC(=O)[C@@H](NC(=O)CNC(=O)[C@H](CCC(=O)O)NC(=O)C(C)(C)NC(=O)[C@@H](N)Cc1ccc(O)cc1)[C@@H](C)O)[C@@H](C)O)C(=O)NC(C)(C)C(=O)N[C@@H](CC(C)C)C(=O)N[C@@H](CC(=O)O)C(=O)N[C@@H](CCCCN)C(=O)N[C@@H](CCCCNC(=O)COCCOCCNC(=O)COCCOCCNC(=O)CC[C@H](NC(=O)CCCCCCCCCCCCCCCCC(=O)O)C(=O)O)C(=O)N[C@@H](C)C(=O)N[C@@H](CCC(N)=O)C(=O)N[C@@H](CCCNC(=N)N)C(=O)N[C@@H](C)C(=O)N[C@@H](Cc1ccccc1)C(=O)N[C@H](C(=O)N[C@@H](CCC(=O)O)C(=O)N[C@@H](Cc1c[nH]c2ccccc12)C(=O)N[C@@H](CC(C)C)C(=O)N[C@@H](CC(C)C)C(=O)N[C@@H](C)C(=O)N[C@@H](CCC(N)=O)C(=O)NCC(=O)N1CCC[C@H]1C(=O)N[C@@H](CO)C(=O)N[C@@H](CO)C(=O)NCC(=O)N[C@@H](C)C(=O)N1CCC[C@H]1C(=O)N1CCC[C@H]1C(=O)N1CCC[C@H]1C(=O)N[C@@H](CO)C(N)=O)C(C)C [Compound 11] (H-Y[Aib]EGTFTSDYSI[Aib]LDKK([AEEA-AEEA-γGlu-C18 diacid])AQRAFVEWLLAQGPSSGAPPPS-NH2) | 0.013 | 0.013 | 0.0047 | 0.005 | 0.005 | 
CC[C@H](C)[C@H](NC(=O)[C@H](CO)NC(=O)[C@H](Cc1ccc(O)cc1)NC(=O)[C@H](CC(=O)O)NC(=O)[C@H](CO)NC(=O)[C@@H](NC(=O)[C@H](Cc1ccccc1)NC(=O)[C@@H](NC(=O)CNC(=O)[C@H](CCC(=O)O)NC(=O)C(C)(C)NC(=O)[C@@H](N)Cc1ccc(O)cc1)[C@@H](C)O)[C@@H](C)O)C(=O)N[C@@H](Cc1ccc(O)cc1)C(=O)N[C@@H](CC(C)C)C(=O)N[C@@H](CC(=O)O)C(=O)N[C@@H](CCCCN)C(=O)N[C@@H](CCCCNC(=O)COCCOCCNC(=O)COCCOCCNC(=O)CC[C@H](NC(=O)CCCCCCCCCCCCCCCCC(=O)O)C(=O)O)C(=O)N[C@@H](C)C(=O)N[C@@H](CCC(N)=O)C(=O)N[C@@H](CCCNC(=N)N)C(=O)N[C@@H](C)C(=O)N[C@@H](Cc1ccccc1)C(=O)N[C@H](C(=O)N[C@@H](CC(N)=O)C(=O)N[C@@H](Cc1c[nH]c2ccccc12)C(=O)N[C@@H](CC(C)C)C(=O)N[C@@H](CC(C)C)C(=O)N[C@@H](C)C(=O)NC(C)(C)C(=O)N[C@@H](CCCCN)C(N)=O)C(C)C [Compound 12] (H-Y[Aib]EGTFTSDYSIYLDKK([AEEA-AEEA-γGlu-C18 diacid])AQRAFVNWLLA[Aib]K-NH2) | 0.016 | 0.017 | 0.011 | 0.012 |  | 
CC[C@H](C)[C@H](NC(=O)[C@H](Cc1ccccc1)NC(=O)[C@H](CCC(=O)O)NC(=O)[C@H](CCCCN)NC(=O)[C@H](C)NC(=O)[C@H](C)NC(=O)[C@H](CCCCNC(=O)COCCOCCNC(=O)COCCOCCNC(=O)CC[C@H](NC(=O)CCCCCCCCCCCCCCCCC(=O)O)C(=O)O)NC(=O)[C@H](CCC(=O)O)NC(=O)[C@H](CC(=O)O)NC(=O)[C@H](CC(C)C)NC(=O)[C@H](Cc1ccc(O)cc1)NC(=O)[C@@H](NC(=O)[C@H](CO)NC(=O)[C@H](Cc1ccc(O)cc1)NC(=O)[C@H](CC(=O)O)NC(=O)[C@H](CO)NC(=O)[C@@H](NC(=O)[C@H](Cc1ccccc1)NC(=O)[C@@H](NC(=O)CNC(=O)[C@H](CCC(=O)O)NC(=O)C(C)(C)NC(=O)[C@@H](N)Cc1ccc(O)cc1)[C@@H](C)O)[C@@H](C)O)[C@@H](C)CC)C(=O)N[C@@H](CCC(=O)O)C(=O)N[C@@H](Cc1c[nH]c2ccccc12)C(=O)N[C@@H](CC(C)C)C(=O)N[C@@H](CCC(=O)O)C(=O)N[C@@H](CO)C(=O)N[C@@H](C)C(N)=O [Compound 13] |  |  |  |  | 0.15 | 0.057
CC[C@H](C)[C@H](NC(=O)[C@H](CO)NC(=O)[C@H](Cc1ccc(O)cc1)NC(=O)[C@H](CC(=O)O)NC(=O)[C@H](CO)NC(=O)[C@@H](NC(=O)[C@H](Cc1ccccc1)NC(=O)[C@@H](NC(=O)CNC(=O)[C@H](CCC(=O)O)NC(=O)C(C)(C)NC(=O)[C@@H](N)Cc1ccc(O)cc1)[C@@H](C)O)[C@@H](C)O)C(=O)N[C@@H](C)C(=O)N[C@@H](CC(C)C)C(=O)N[C@@H](CC(=O)O)C(=O)N[C@@H](CCCCN)C(=O)N[C@@H](CCCCNC(=O)COCCOCCNC(=O)COCCOCCNC(=O)CC[C@H](NC(=O)CCCCCCCCCCCCCCCCC(=O)O)C(=O)O)C(=O)N[C@@H](C)C(=O)N[C@@H](CCC(N)=O)C(=O)N[C@@H](CCCNC(=N)N)C(=O)N[C@@H](C)C(=O)N[C@@H](Cc1ccccc1)C(=O)N[C@H](C(=O)N[C@@H](CC(N)=O)C(=O)N[C@@H](Cc1c[nH]c2ccccc12)C(=O)N[C@@H](CC(C)C)C(=O)N[C@H](C(=O)N[C@@H](C)C(=O)NC(C)(C)C(=O)N[C@@H](CCCCN)C(=O)N1CCC[C@H]1C(=O)N[C@@H](CO)C(=O)N[C@@H](CO)C(=O)NCC(=O)N[C@@H](C)C(=O)N1CCC[C@H]1C(=O)N1CCC[C@H]1C(=O)N1CCC[C@H]1C(=O)N[C@@H](CO)C(N)=O)C(C)C)C(C)C [Compound 14] | 0.008 |  | 0.0064 |  | 0.006 | 0.008
CC[C@H](C)[C@H](NC(=O)[C@H](Cc1ccccc1)NC(=O)[C@H](CCC(=O)O)NC(=O)[C@H](CCCCN)NC(=O)[C@H](C)NC(=O)[C@H](C)NC(=O)[C@H](CCCCNC(=O)COCCOCCNC(=O)COCCOCCNC(=O)CC[C@H](NC(=O)CCCCCCCCCCCCCCCCC(=O)O)C(=O)O)NC(=O)[C@H](CCC(=O)O)NC(=O)[C@H](CC(=O)O)NC(=O)[C@H](CC(C)C)NC(=O)[C@H](Cc1ccc(O)cc1)NC(=O)[C@@H](NC(=O)[C@H](CO)NC(=O)[C@H](Cc1ccc(O)cc1)NC(=O)[C@H](CC(=O)O)NC(=O)[C@H](CO)NC(=O)[C@@H](NC(=O)[C@H](Cc1ccccc1)NC(=O)[C@@H](NC(=O)CNC(=O)[C@H](CCC(=O)O)NC(=O)C(C)(C)NC(=O)[C@@H](N)Cc1ccc(O)cc1)[C@@H](C)O)[C@@H](C)O)[C@@H](C)CC)C(=O)N[C@@H](CCC(=O)O)C(=O)N[C@@H](Cc1c[nH]c2ccccc12)C(=O)N[C@@H](CC(C)C)C(=O)N[C@@H](CCC(=O)O)C(=O)N[C@@H](CO)C(=O)N[C@@H](C)C(N)=O [Compound 14] |  | 0.056 |  | 0.147 |  | 
CC[C@H](C)[C@H](NC(=O)[C@H](CO)NC(=O)[C@H](Cc1ccc(O)cc1)NC(=O)[C@H](CC(=O)O)NC(=O)[C@H](CO)NC(=O)[C@@H](NC(=O)[C@H](Cc1ccccc1)NC(=O)[C@@H](NC(=O)CNC(=O)[C@H](CCC(=O)O)NC(=O)C(C)(C)NC(=O)[C@@H](N)Cc1ccc(O)cc1)[C@@H](C)O)[C@@H](C)O)C(=O)N[C@@H](C)C(=O)N[C@@H](CC(C)C)C(=O)N[C@@H](CC(=O)O)C(=O)N[C@@H](CCCCN)C(=O)N[C@@H](CCCCNC(=O)COCCOCCNC(=O)COCCOCCNC(=O)CC[C@H](NC(=O)CCCCCCCCCCCCCCCCC(=O)O)C(=O)O)C(=O)N[C@@H](C)C(=O)N[C@@H](CCC(N)=O)C(=O)N[C@@H](CCCNC(=N)N)C(=O)N[C@@H](C)C(=O)N[C@@H](Cc1ccccc1)C(=O)N[C@H](C(=O)N[C@@H](CC(N)=O)C(=O)N[C@@H](Cc1c[nH]c2ccccc12)C(=O)N[C@@H](CC(C)C)C(=O)N[C@H](C(=O)N[C@@H](C)C(=O)NC(C)(C)C(=O)N[C@@H](CCCCN)C(=O)N1CCC[C@H]1C(=O)N[C@@H](CO)C(=O)N[C@@H](CO)C(=O)NCC(=O)N[C@@H](C)C(=O)N1CCC[C@H]1C(=O)N1CCC[C@H]1C(=O)N1CCC[C@H]1C(=O)N[C@@H](CO)C(N)=O)C(C)C)C(C)C [Compound 15] |  | 0.008 |  | 0.006 |  | 
